Data as given in US8273771B2, “Ischemic disorder or disease inhibitors” (Pronas Pharma AB, priority 2007, dated 2012).

How the values were obtained:
MCA and BA from SAH rats = assay: Myograph contractile response to ET-1 in cerebral arteries of treated SAH rats; design: species or system rat; settings: in vivo treated SAH rats compared to SAH rats, no significant difference to sham
Procedure: After 48 hours of observation sham, SAH treated with SB386023-b or treated with the PKC inhibitor RO-31-7549 or U0126 or SAH+vehicle operated rats (see above SAH model) were anaesthetized with CO2 and decapitated. The brains were quickly removed and chilled in ice-cold bicarbonate buffer solution (see composition below). Under a dissection microscope, the middle cerebral artery (MCA), the basilar artery (BA) and circle of Willis were carefully dissected free from the brain and cleared of connective tissue. The MCA and BA were immediately mounted in myographs for in vitro pharmacology or snap frozen at −80° C. and examined by real-time PCR.
In vitro Pharmacology Myograph Experiments For contractile experiments a sensitive myograph was used for recording the isometric tension in isolated cerebral arteries (Hogestatt et al., (1983, Mulvany and Helpern, 1977). The vessels were cut into 1 mm long cylindrical segments and mounted on two 40 μm in diameter stainless steel wires in a Myograph (Danish Myo Technology A/S, Denmark). One wire was connected to a force displacement transducer attached to an analog-digital converter unit (ADInstruments, Oxford, UK). The other wire was connected to a micrometer screw, allowing fine adjustments of vascular tone by varying the distance between the wires. Measurements were recorded on a computer by use of a PowerLab unit (ADInstruments). […]

AT1 receptor protein = assay: Immunohistochemistry of cerebral arteries after SAH; format: in vivo, rat; settings: smooth muscle cell layer; sham 100±7%, SAH 168±7%
Text: (§1) The MCA and BA were dissected out and then placed onto Tissue TEK (Gibco) and frozen. They were then sectioned into 10 μm thick slices. The primary antibodies used were rabbit antihuman ETB (IBL, 16207), diluted 1:400, goat anti mouse 5-HT1B (Santa Cruz Biotechnologies, sc-1461), diluted 1:100, AT1 (Santa Cruz Biotechnologies), diluted 1:100, mouse anti rat CD31 (Serotec, MCA1746), diluted 1:200, and mouse anti rat smooth muscle actin (Serotec, MCA1905T) diluted 1:100. All dilutions were done in PBS with 10% fetal calf serum. The secondary antibodies used were donkeyantimouse Cy™5 conjugated (JacksonImmunoResearch, 715-175-150) 1:100, donkeyantirabbit Cy™3 conjugated (JacksonImmunoResearch, 711-165-152) 1:100 in PBS with 10% fetal calf serum. The antibodies were detected at the appropriate wavelength in a confocal microscopy (Zeiss, USA). As control, only secondary antibodies were used.
(§2) The images were analysed using the ImageJsoftware (http://rsb.info.nih.gov/ij/). The fluorescence in 4-6 different areas in each artery was measured and a mean value was calculated. These values are presented as percentage fluorescence in the SAH groups compared to the sham group, where the sham group is set to 100%.

ETB receptor protein = assay: as above; format: in vivo, rat; settings: smooth muscle cell layer; sham 100±3%, SAH 167±4%
Text: as §1, §2

Structure (SMILES) | ET-1 induced contractile response (MCA and BA from SAH rats) | AT1 receptor protein level, fluorescence compared to sham (AT1 receptor protein) | ETB receptor protein level, fluorescence compared to sham (ETB receptor protein)
Cn1cc(C2=C(c3cn(CCCN)c4ccccc34)C(=O)NC2=O)c2ccccc21 [RO-31-7549] | significantly attenuated |  | 
Oc1cc(-c2nc(-c3ccccc3)[nH]c2-c2ccncc2)ccc1Cl [SB386023-b] | significantly attenuated | 105±10% | 109±5%
